Assay results from publication PMC9229919, “4-Aminoquinoline-Based Adamantanes as Potential Anticholinesterase Agents in Symptomatic Treatment of Alzheimer’s Disease” (Pharmaceutics, 2022).
Read-outs that look alike come from different tables or passages of the source.

Columns and labels:
[1] = Ferric reducing antioxidant power (FRAP) assay; details: for FRAP: mean ± standard error of three experiments;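 as to FRAP: expressed as µM Fe2+ equivalents from an FeSO4·7H2O standard curve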
Procedure, shortened: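 Compounds at 10 and 100 µM were mixed with FRAP reagent (300 mM acetate buffer pH 3.6, TPTZ in HCl, FeCl3, 10:1:1) and incubated 60 min at 37 °C. Fe^2+-TPTZ formation read at 593 nm against a blank. Values derived from an Fe2SO4·7H2O standard curve, three independent experiments.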

recombinant human AChE = molecular target: T1, recombinant human AChE (Homo sapiens, UniProt P22303); assay: biochemical; type: biochemical; details: for IS: IS = Ki(BChE)/Ki(AChE), IS > 1 selective to AChE
T1 construct: gift of Dr Florian Nachon (Armed Forces Biomedical Research Institute, Brétigny-sur-Orge, France)
Procedure, shortened: (§1)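 Modified Ellman assay with acetylthiocholine and DTNB in 0.1 M sodium phosphate pH 7.4 (enzymes diluted with 0.1% BSA), ≤0.2% DMSO, 25 °C. At least three inhibitor concentrations per substrate level; Ki,app from Hunter–Downs equation, Ki from y-intercept and inhibition type from Ki,app vs [S].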

purified human BChE = molecular target: T2, purified human BChE (Homo sapiens, UniProt P06276); assay: biochemical; type: biochemical
T2 construct: possibly also a gift of Dr Florian Nachon (the sentence is ambiguous)
Procedure, shortened: as §1

[2] = Reverse-phase thin-layer chromatographic lipophilicity (RF, RM0); type: physicochemical; details: for RM0: intercept of RM = RM0 + bC; for b: slope of RM = RM0 + bC; for RF, Methanol/Water/Hydrochloric acid (conc.), mobile phase I / RF, Dioxane/Water/Hydrochloric acid (conc.), mobile phase II / RF, Methanol/Water/Hydrochloric acid (conc.), mobile phase II / RF, Acetone/Water/Hydrochloric acid (conc.), mobile phase III / RF, Dioxane/Water/Hydrochloric acid (conc.), mobile phase III / RF, Methanol/Water/Hydrochloric acid (conc.), mobile phase III / RF, Dioxane/Water/Hydrochloric acid (conc.), mobile phase IV / RF, Acetone/Water/Hydrochloric acid (conc.), mobile phase IV / RF, Methanol/Water/Hydrochloric acid (conc.), mobile phase IV / RF, Acetone/Water/Hydrochloric acid (conc.), mobile phase IX / RF, Methanol/Water/Hydrochloric acid (conc.), mobile phase IX / RF, Dioxane/Water/Hydrochloric acid (conc.), mobile phase V / RF, Acetone/Water/Hydrochloric acid (conc.), mobile phase V / RF, Methanol/Water/Hydrochloric acid (conc.), mobile phase V / RF, Dioxane/Water/Hydrochloric acid (conc.), mobile phase VI / RF, Acetone/Water/Hydrochloric acid (conc.), mobile phase VI / RF, Methanol/Water/Hydrochloric acid (conc.), mobile phase VI / RF, Acetone/Water/Hydrochloric acid (conc.), mobile phase VII / RF, Methanol/Water/Hydrochloric acid (conc.), mobile phase VII / RF, Acetone/Water/Hydrochloric acid (conc.), mobile phase VIII / RF, Methanol/Water/Hydrochloric acid (conc.), mobile phase VIII: RP-18 silica; for RF, Methanol/Water/Hydrochloric acid (conc.), mobile phase I: I = 90%MeOH/5%H2O/5%HCl; for RF, Dioxane/Water/Hydrochloric acid (conc.), mobile phase II: II = 80%Dioxane/15%H2O/5%HCl; for RF, Methanol/Water/Hydrochloric acid (conc.), mobile phase II: II = 85%MeOH/10%H2O/5%HCl; for RF, Acetone/Water/Hydrochloric acid (conc.), mobile phase III: III = 70%AC/25%H2O/5%HCl; for RF, Dioxane/Water/Hydrochloric acid (conc.), mobile phase III: III = 70%Dioxane/25%H2O/5%HCl; for RF, Methanol/Water/Hydrochloric acid (conc.), mobile phase III: III = 80%MeOH/15%H2O/5%HCl; for RF, Dioxane/Water/Hydrochloric acid (conc.), mobile phase IV: IV = 60%Dioxane/35%H2O/5%HCl; for RF, Acetone/Water/Hydrochloric acid (conc.), mobile phase IV: IV = 65%AC/30%H2O/5%HCl; for RF, Methanol/Water/Hydrochloric acid (conc.), mobile phase IV: IV = 75%MeOH/20%H2O/5%HCl; for RF, Acetone/Water/Hydrochloric acid (conc.), mobile phase IX: IX = 40%AC/55%H2O/5%HCl; for RF, Methanol/Water/Hydrochloric acid (conc.), mobile phase IX: IX = 50%MeOH/45%H2O/5%HCl; for RF, Dioxane/Water/Hydrochloric acid (conc.), mobile phase V: V = 50%Dioxane/45%H2O/5%HCl; for RF, Acetone/Water/Hydrochloric acid (conc.), mobile phase V: V = 60%AC/35%H2O/5%HCl; for RF, Methanol/Water/Hydrochloric acid (conc.), mobile phase V: V = 70%MeOH/25%H2O/5%HCl; for RF, Dioxane/Water/Hydrochloric acid (conc.), mobile phase VI: VI = 40%Dioxane/55%H2O/5%HCl; for RF, Acetone/Water/Hydrochloric acid (conc.), mobile phase VI: VI = 55%AC/40%H2O/5%HCl; for RF, Methanol/Water/Hydrochloric acid (conc.), mobile phase VI: VI = 65%MeOH/30%H2O/5%HCl; for RF, Acetone/Water/Hydrochloric acid (conc.), mobile phase VII: VII = 50%AC/45%H2O/5%HCl; for RF, Methanol/Water/Hydrochloric acid (conc.), mobile phase VII: VII = 60%MeOH/35%H2O/5%HCl; for RF, Acetone/Water/Hydrochloric acid (conc.), mobile phase VIII: VIII = 45%AC/50%H2O/5%HCl; for RF, Methanol/Water/Hydrochloric acid (conc.), mobile phase VIII: VIII = 55%MeOH/40%H2O/5%HCl
Procedure, shortened: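 Reverse-phase TLC using mobile phases of methanol, acetone or dioxane with water and hydrochloric acid. Methanol varied in 10% steps; development distance 4.5 cm, ambient temperature (22±2 °C). RF measured and RM0 derived from retention.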

[3] = log (Ki/µM AChE), read-out: Y Measured 1 log(ki)Ache (converted)
[4] = ± standard error, 25 °C, ATCh substrate, read-out: Ki AChE
[5] = logarithm of Ki in µM, BChE, dependent variable of the QSAR model, read-out: Y Measured 2 log(ki)Bche, log (Ki/µM BChE) (converted)
[6] = ± standard error, 25 °C, ATCh substrate, read-out: Ki BChE
[7] = Acetone/Water/Hydrochloric acid (conc.)
[8] = Dioxane/Water/Hydrochloric acid (conc.)
[9] = Methanol/Water/Hydrochloric acid (conc.)

T2 sequence (P06276 29-602): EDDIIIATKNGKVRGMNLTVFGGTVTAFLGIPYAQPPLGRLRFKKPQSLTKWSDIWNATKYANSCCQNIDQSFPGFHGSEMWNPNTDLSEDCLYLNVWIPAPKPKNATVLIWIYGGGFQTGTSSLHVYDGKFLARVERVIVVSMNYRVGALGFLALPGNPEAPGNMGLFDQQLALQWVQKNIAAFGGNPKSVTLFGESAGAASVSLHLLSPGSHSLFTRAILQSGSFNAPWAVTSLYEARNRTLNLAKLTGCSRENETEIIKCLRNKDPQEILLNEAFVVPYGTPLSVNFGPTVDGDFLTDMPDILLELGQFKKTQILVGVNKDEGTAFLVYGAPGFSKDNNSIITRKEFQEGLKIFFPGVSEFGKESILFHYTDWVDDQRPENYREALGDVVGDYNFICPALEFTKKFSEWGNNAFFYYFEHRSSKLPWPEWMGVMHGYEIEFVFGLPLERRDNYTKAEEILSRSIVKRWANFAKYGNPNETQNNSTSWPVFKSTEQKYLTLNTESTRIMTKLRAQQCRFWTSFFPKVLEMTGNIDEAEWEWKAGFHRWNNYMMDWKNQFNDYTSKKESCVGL
T1 sequence (P22303 32-614): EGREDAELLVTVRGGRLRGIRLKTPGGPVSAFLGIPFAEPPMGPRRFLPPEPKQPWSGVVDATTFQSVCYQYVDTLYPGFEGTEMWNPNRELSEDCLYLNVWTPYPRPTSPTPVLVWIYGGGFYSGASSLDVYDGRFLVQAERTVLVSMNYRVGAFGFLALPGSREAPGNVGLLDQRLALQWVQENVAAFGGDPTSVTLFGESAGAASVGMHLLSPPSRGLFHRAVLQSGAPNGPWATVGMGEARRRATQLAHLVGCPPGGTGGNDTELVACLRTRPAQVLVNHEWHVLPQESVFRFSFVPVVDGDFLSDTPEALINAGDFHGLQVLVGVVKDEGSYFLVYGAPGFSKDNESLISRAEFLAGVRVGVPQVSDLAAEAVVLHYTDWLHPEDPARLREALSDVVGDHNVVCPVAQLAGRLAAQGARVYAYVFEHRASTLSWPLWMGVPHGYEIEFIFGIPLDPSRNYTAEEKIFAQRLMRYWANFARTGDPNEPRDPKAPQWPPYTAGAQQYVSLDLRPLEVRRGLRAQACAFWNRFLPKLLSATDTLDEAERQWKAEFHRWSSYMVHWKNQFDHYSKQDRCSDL

Row | Structure (SMILES) | FRAP ([1]; 10 µM compound) [µM] | FRAP ([1]; 100 µM compound) [µM] | Ki (recombinant human AChE; [3]) [µM] | Ki (recombinant human AChE; [4]) [µM] | Ki (purified human BChE; [5]) [µM] | Ki (purified human BChE; [6]) [µM] | RM0 [2, 7] | b [2, 7] | RM0 [2, 8] | b [2, 8] | RM0 [2, 9] | b [2, 9] | RF, Methanol/Water/Hydrochloric acid (conc.), mobile phase I [2] | RF, Dioxane/Water/Hydrochloric acid (conc.), mobile phase II [2] | RF, Methanol/Water/Hydrochloric acid (conc.), mobile phase II [2] | RF, Acetone/Water/Hydrochloric acid (conc.), mobile phase III [2] | RF, Dioxane/Water/Hydrochloric acid (conc.), mobile phase III [2] | RF, Methanol/Water/Hydrochloric acid (conc.), mobile phase III [2] | RF, Dioxane/Water/Hydrochloric acid (conc.), mobile phase IV [2] | RF, Acetone/Water/Hydrochloric acid (conc.), mobile phase IV [2] | other results
1 | Clc1ccc2c(NCCCCNCC34CC5CC(CC(C5)C3)C4)ccnc2c1 [Compound 3] | 0 | 38 ± 6 | 1 | 1 | 0.92 | 0.92 ± 0.04 | 1.838 | 3.04 | 0.7921 | 1.783 | 2.348 | 3.092 | 0.71 | 0.78 | 0.65 | 0.63 | 0.74 | 0.51 | 0.74 | 0.58 | IS (recombinant human AChE): 0.9; RF, Methanol/Water/Hydrochloric acid (conc.), mobile phase IV [2]: 0.53; RF, Acetone/Water/Hydrochloric acid (conc.), mobile phase IX [2]: 0.15; RF, Methanol/Water/Hydrochloric acid (conc.), mobile phase IX [2]: 0.11; RF, Dioxane/Water/Hydrochloric acid (conc.), mobile phase V [2]: 0.55; RF, Acetone/Water/Hydrochloric acid (conc.), mobile phase V [2]: 0.51; RF, Methanol/Water/Hydrochloric acid (conc.), mobile phase V [2]: 0.44; RF, Dioxane/Water/Hydrochloric acid (conc.), mobile phase VI [2]: 0.41; RF, Acetone/Water/Hydrochloric acid (conc.), mobile phase VI [2]: 0.41; RF, Methanol/Water/Hydrochloric acid (conc.), mobile phase VI [2]: 0.37; RF, Acetone/Water/Hydrochloric acid (conc.), mobile phase VII [2]: 0.35; RF, Methanol/Water/Hydrochloric acid (conc.), mobile phase VII [2]: 0.25; RF, Acetone/Water/Hydrochloric acid (conc.), mobile phase VIII [2]: 0.3; RF, Methanol/Water/Hydrochloric acid (conc.), mobile phase VIII [2]: 0.18
2 | Clc1ccc2c(N3CCN(CCC45CC6CC(CC(C6)C4)C5)CC3)ccnc2c1 [Compound 21] | 6.0 ± 2.0 | 15 ± 5 | 2.1 | 2.1 ± 0.4 | 5.6 | 5.6 ± 0.6 | 1.611 | 2.562 | 0.7539 | 1.607 | 2.219 | 2.906 | 0.68 | 0.73 | 0.65 | 0.59 | 0.71 | 0.51 | 0.71 | 0.53 | IS (recombinant human AChE): 2.7; RF, Methanol/Water/Hydrochloric acid (conc.), mobile phase IV [2]: 0.51; RF, Acetone/Water/Hydrochloric acid (conc.), mobile phase IX [2]: 0.17; RF, Methanol/Water/Hydrochloric acid (conc.), mobile phase IX [2]: 0.12; RF, Dioxane/Water/Hydrochloric acid (conc.), mobile phase V [2]: 0.52; RF, Acetone/Water/Hydrochloric acid (conc.), mobile phase V [2]: 0.44; RF, Methanol/Water/Hydrochloric acid (conc.), mobile phase V [2]: 0.45; RF, Dioxane/Water/Hydrochloric acid (conc.), mobile phase VI [2]: 0.39; RF, Acetone/Water/Hydrochloric acid (conc.), mobile phase VI [2]: 0.4; RF, Methanol/Water/Hydrochloric acid (conc.), mobile phase VI [2]: 0.36; RF, Acetone/Water/Hydrochloric acid (conc.), mobile phase VII [2]: 0.35; RF, Methanol/Water/Hydrochloric acid (conc.), mobile phase VII [2]: 0.27; RF, Acetone/Water/Hydrochloric acid (conc.), mobile phase VIII [2]: 0.29; RF, Methanol/Water/Hydrochloric acid (conc.), mobile phase VIII [2]: 0.18
3 | CC(CCNCC12CC3CC(CC(C3)C1)C2)Nc1ccnc2cc(C(F)(F)F)ccc12 (centres unmarked) [Compound 13] | 19 ± 7 | 64 ± 5 | 0.91 | 0.91 ± 0.05 | 1.4 | 1.8 ± 0.3 | 2.073 | 3.206 | 0.9361 | 1.847 | 2.626 | 3.42 | 0.72 | 0.73 | 0.66 | 0.56 | 0.7 | 0.5 | 0.7 | 0.52 | RF, Methanol/Water/Hydrochloric acid (conc.), mobile phase IV [2]: 0.49; RF, Acetone/Water/Hydrochloric acid (conc.), mobile phase IX [2]: 0.1; RF, Methanol/Water/Hydrochloric acid (conc.), mobile phase IX [2]: 0.09; RF, Dioxane/Water/Hydrochloric acid (conc.), mobile phase V [2]: 0.5; RF, Acetone/Water/Hydrochloric acid (conc.), mobile phase V [2]: 0.4; RF, Methanol/Water/Hydrochloric acid (conc.), mobile phase V [2]: 0.42; RF, Dioxane/Water/Hydrochloric acid (conc.), mobile phase VI [2]: 0.33; RF, Acetone/Water/Hydrochloric acid (conc.), mobile phase VI [2]: 0.34; RF, Methanol/Water/Hydrochloric acid (conc.), mobile phase VI [2]: 0.34; RF, Acetone/Water/Hydrochloric acid (conc.), mobile phase VII [2]: 0.3; RF, Methanol/Water/Hydrochloric acid (conc.), mobile phase VII [2]: 0.22; RF, Acetone/Water/Hydrochloric acid (conc.), mobile phase VIII [2]: 0.23; RF, Methanol/Water/Hydrochloric acid (conc.), mobile phase VIII [2]: 0.14
4 | Clc1ccc2c(Nc3cccc(NCC45CC6CC(CC(C6)C4)C5)c3)ccnc2c1 [Compound 18] | 22 ± 6 | 300 ± 32 | 8.99 | 9 ± 0.8 | 5.5 | 5.5 ± 0.6 | 2.074 | 3.191 | 1.102 | 2.114 | 2.664 | 3.468 | 0.71 | 0.75 | 0.68 | 0.55 | 0.71 | 0.5 | 0.7 | 0.5 | antioxidant power lower than that of Trolox ([1]; on average): ~20 times; IS (recombinant human AChE): 0.6; decrease in BChE inhibition vs compound 5 (purified human BChE): up to 275 times; RF, Methanol/Water/Hydrochloric acid (conc.), mobile phase IV [2]: 0.49; RF, Acetone/Water/Hydrochloric acid (conc.), mobile phase IX [2]: 0.1; RF, Methanol/Water/Hydrochloric acid (conc.), mobile phase IX [2]: 0.09; RF, Dioxane/Water/Hydrochloric acid (conc.), mobile phase V [2]: 0.48; RF, Acetone/Water/Hydrochloric acid (conc.), mobile phase V [2]: 0.4; RF, Methanol/Water/Hydrochloric acid (conc.), mobile phase V [2]: 0.41; RF, Dioxane/Water/Hydrochloric acid (conc.), mobile phase VI [2]: 0.3; RF, Acetone/Water/Hydrochloric acid (conc.), mobile phase VI [2]: 0.36; RF, Methanol/Water/Hydrochloric acid (conc.), mobile phase VI [2]: 0.34; RF, Acetone/Water/Hydrochloric acid (conc.), mobile phase VII [2]: 0.3; RF, Methanol/Water/Hydrochloric acid (conc.), mobile phase VII [2]: 0.22; RF, Acetone/Water/Hydrochloric acid (conc.), mobile phase VIII [2]: 0.21; RF, Methanol/Water/Hydrochloric acid (conc.), mobile phase VIII [2]: 0.13
